Reference: PubChem BioAssay AID463180 (University of Pittsburgh Molecular Library Screening Center, 2010)
Calls of active or inactive are those of the source. How the calls were made is not given here.

What follows are compounds tested against Furin (Homo sapiens) (UniProt P09958) (assay: furin substrate cleavage inhibition retest – biochemical, fluorescence intensity, confirmation (AID 463180)). Details: Recombinant furin, fluorogenic substrate cleavage, at 50 µM, hits give high values.
Furin (Homo sapiens), sequence (P09958 108-714 limits assumed): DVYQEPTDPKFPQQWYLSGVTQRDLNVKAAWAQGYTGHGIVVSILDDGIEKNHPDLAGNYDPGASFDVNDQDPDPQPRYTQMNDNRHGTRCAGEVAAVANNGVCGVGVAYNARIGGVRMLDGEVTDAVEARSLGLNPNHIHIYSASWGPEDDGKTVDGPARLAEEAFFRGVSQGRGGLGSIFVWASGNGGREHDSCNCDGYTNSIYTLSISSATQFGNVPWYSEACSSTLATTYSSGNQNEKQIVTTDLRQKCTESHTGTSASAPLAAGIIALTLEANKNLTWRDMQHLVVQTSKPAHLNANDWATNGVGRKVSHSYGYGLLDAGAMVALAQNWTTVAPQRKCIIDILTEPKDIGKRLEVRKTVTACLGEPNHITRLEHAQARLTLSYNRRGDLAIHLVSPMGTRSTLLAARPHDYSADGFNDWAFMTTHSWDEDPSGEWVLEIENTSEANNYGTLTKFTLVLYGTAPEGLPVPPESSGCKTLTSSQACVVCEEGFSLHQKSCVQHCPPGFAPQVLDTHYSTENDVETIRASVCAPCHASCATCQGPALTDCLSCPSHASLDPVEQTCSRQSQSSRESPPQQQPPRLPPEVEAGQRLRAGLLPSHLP

**Q.** For CN1/C(=C\C=C2C(=O)NC(=O)NC2=O)C(C)(C)c2ccccc21, which inhibition is on record?
**A.** 1.52% (inactive)

**Q.** For Cc1ccc2nc(/C(C#N)=C/c3cn[nH]c3-c3ccc(F)cc3)[nH]c2c1, which inhibition is on record?
**A.** 8.39% (inactive)

**Q.** For COc1cc(C(=O)Nc2ccc(-c3nnc(-c4ccco4)o3)cc2)cc(OC)c1OC, which inhibition is on record?
**A.** -21% (inactive)

**Q.** How did the inhibition turn out when COC(=O)c1ccc(Cn2nc(C)c(Cl)c2C)o1 was run?
**A.** -14.9% (inactive)

**Q.** Which inhibition does the source give for CCOC(=O)c1cc(C)sc1/N=C/C1=C(O)CCCC1=O here?
**A.** -5.31% (inactive)

**Q.** Which inhibition does the source give for O=C1CC(N2CCC(c3nc4ccccc4o3)CC2)C(=O)N1Cc1cccs1 (stereo not given) here?
**A.** -13.2% (inactive)

**Q.** With CCn1c(C)c(CCC(=O)O)c(=O)n2nc(-c3ccccc3OC)cc12 as the compound, how does the inhibition read?
**A.** -22.2% (inactive)

**Q.** C=CCn1c(O)c(/C=N/NC(=O)c2ccncc2)c(=O)[nH]c1=O was tested. Which inhibition did it give?
**A.** 5.98% (inactive)

**Q.** With CCn1c(SCC(=O)Nc2cc(F)ccc2C)nnc1-c1ccccc1O as the compound, how does the inhibition read?
**A.** -18.5% (inactive)

**Q.** With COc1ccc(N=CC2=C(O)CC(C)(C)CC2=O)cc1 as the compound, how does the inhibition read?
**A.** 8.92% (inactive)

**Q.** COc1cccc(-n2nnc3c(=O)n(Cc4ccccc4Cl)cnc32)c1 was tested. Which inhibition did it give?
**A.** -14.9% (inactive)

**Q.** How did the inhibition turn out when COc1ccc(C(=O)NCCN2CCOCC2)cc1OC was run?
**A.** -19.6% (inactive)

**Q.** How did the inhibition turn out when O=C(COc1ccc(Cl)cc1Cl)NC(=O)N1CCOCC1 was run?
**A.** -20.4% (inactive)

**Q.** With O=C(CN1C(=O)C2C3C=CC(C3)C2C1=O)NCc1ccc2c(c1)OCO2 (stereo not given) as the compound, how does the inhibition read?
**A.** -17.4% (inactive)

**Q.** With CCCCN1CCC(O)(c2ccccc2)C(C(=O)c2ccccc2)C1 (stereo not given) as the compound, how does the inhibition read?
**A.** -20.5% (inactive)

**Q.** CC1(C)CC(=O)C(C=Nc2cccnc2/N=C/C2=C(O)CC(C)(C)CC2=O)=C(O)C1 was tested. Which inhibition did it give?
**A.** 0.675% (inactive)

**Q.** How did the inhibition turn out when CCCOP(=O)(c1ccc(N(C)C)cc1)C(Nc1ccccc1)c1ccc(N(C)C)cc1 (stereo not given) was run?
**A.** 31.5%

**Q.** CNC(=O)C1CC(=O)N(CCc2ccc(OC)cc2)C(=Nc2ccc(OC)cc2)S1 (stereo not given) was tested. Which inhibition did it give?
**A.** -13.8% (inactive)

**Q.** With COc1cc(S(=O)(=O)Nc2ncccc2C)c(OC)cc1Cl as the compound, how does the inhibition read?
**A.** -4.1% (inactive)

**Q.** For COc1cc(/C=C/C(=O)OCC(=O)NC(=O)NC(C)C)ccc1O, which inhibition is on record?
**A.** 3.94% (inactive)

**Q.** Which inhibition does the source give for Cc1cccc(/C=C2/S/C(=N/N=C3\CC4CCC3(C)C4(C)C)NC2=O)c1 (stereo not given) here?
**A.** 12.3%

**Q.** Which inhibition does the source give for O=C1CC(=C2c3ccccc3-c3ccccc32)C(=O)N1CCCCN1CCN(c2ccccc2)CC1 here?
**A.** 9.51% (inactive)

**Q.** For CCOC(=O)NC(=O)CSc1nnnn1-c1ccccc1, which inhibition is on record?
**A.** -19.1% (inactive)

**Q.** For CC1(C)CC(=O)C(/C=N/c2ccccn2)=C(O)C1, which inhibition is on record?
**A.** 2.22% (inactive)

**Q.** How did the inhibition turn out when O=C(c1ccco1)N1CCN(C2CC(=O)N(c3ccc4c(c3)OCO4)C2=O)CC1 (stereo not given) was run?
**A.** -17% (inactive)

**Q.** For CC1(C)CC(=O)C(C=Nc2cccnc2)=C(O)C1, which inhibition is on record?
**A.** 21.6%

**Q.** With Cc1cccc(-n2c(O)c(/C=C/C=Nc3ccccc3)c(=O)[nH]c2=O)c1 as the compound, how does the inhibition read?
**A.** 14.2%

**Q.** How did the inhibition turn out when CCCCCCN1C=CC=C/C1=C/C=C(C#N)C#N was run?
**A.** 6.58% (inactive)

**Q.** COc1ccc(NC(=O)CSc2nncn2C)cc1OC was tested. Which inhibition did it give?
**A.** -12.4% (inactive)

**Q.** Which inhibition does the source give for OC1C2CN3CCN(C2)CC1(Cc1ccccc1)C3 (stereo not given) here?
**A.** -20.6% (inactive)

**Q.** CC(=O)NC(C)c1nc2ccccc2n1Cc1ccccc1F (stereo not given) was tested. Which inhibition did it give?
**A.** -16.7% (inactive)

**Q.** For CCNC(=O)C1CC(=O)N(Cc2ccc3c(c2)OCO3)C(=Nc2ccc(F)cc2)S1 (stereo not given), which inhibition is on record?
**A.** -9.04% (inactive)

**Q.** Which inhibition does the source give for Cc1cc(N=CC2=C(O)CCCC2=O)no1 here?
**A.** -4.93% (inactive)

**Q.** Which inhibition does the source give for CCCC(=O)Nc1cccc(Oc2nc(C)cc(C)c2C#N)c1 here?
**A.** -3.32% (inactive)

**Q.** How did the inhibition turn out when Cc1cc(N=CC2=C(O)CC(C)(C)CC2=O)no1 was run?
**A.** -1.24% (inactive)

**Q.** Which inhibition does the source give for O=C1CC(c2ccccc2)CC(=O)C1=CN1CCCC1 (stereo not given) here?
**A.** 1.13% (inactive)

**Q.** How did the inhibition turn out when CSc1nc(N)c(N=Nc2ccc([As](=O)(O)O)cc2)c(=O)[nH]1 was run?
**A.** 15.9%

**Q.** How did the inhibition turn out when CCN1CCS/C1=C/C=C/C1=[N+](CC)CCS1 was run?
**A.** 61.3%

**Q.** Which inhibition does the source give for COc1ccccc1NC(=O)c1cc(S(=O)(=O)N2CCOCC2)ccc1Cl here?
**A.** -16.1% (inactive)

**Q.** OC(CNCC1CCCO1)Cn1c2ccc(Br)cc2c2cc(Br)ccc21 (stereo not given) was tested. Which inhibition did it give?
**A.** -2.62% (inactive)

**Q.** With O=C(NCc1ccccc1)C1COc2ccccc2O1 (stereo not given) as the compound, how does the inhibition read?
**A.** -16.5% (inactive)

**Q.** For CC1(C)CC(=O)C(C=Nc2ccc(Cl)cn2)=C(O)C1, which inhibition is on record?
**A.** -4.84% (inactive)

**Q.** Cc1ccc(-n2nc3cc(C)c(NC(=O)c4cccnc4)cc3n2)cc1 was tested. Which inhibition did it give?
**A.** -15.7% (inactive)

**Q.** Which inhibition does the source give for COc1ccc(/C=N/n2c(=O)[nH]c3c([nH]c4ccc(C)cc43)c2=O)cc1CN1CCOCC1 here?
**A.** -14% (inactive)

**Q.** Which inhibition does the source give for CCOC(=O)C(C(=O)NCC1CCCO1)C1CCCCC1 (stereo not given) here?
**A.** -17.6% (inactive)
